The values that follow come from PMC7516017, “Organoids to Study Intestinal Nutrient Transport, Drug Uptake and Metabolism – Update to the Human Model and Expansion of Applications” (Frontiers in Bioengineering and Biotechnology, 2020).

Data set [1] deals with sodium-proton exchangers (NHEs). Put plainly: Live-cell imaging of intracellular pH after Gly-Sar with NHE inhibitors. It counts as cell-based, mouse. The settings on record: BCECF-AM, murine small intestinal organoids, 50mM Gly-Sar, 100µM Amilorid or 50µM S1611. The protocol:
(§1) Intestinal organoids – Transport & Metabolism […]
(§2) addition of fructose. Following incubation, substrate/inhibitor solutions were removed from intact […]
centrifuged (300g, 10min). For “broken up” organoids, dissociated organoids were centrifuged (300g, 3min) and washed three times with PBS. […]
(§3) 1.8. Imaging of intracellular acidification
(§4) 100µM Amilorid, and 50µM S1611 (Sanofi Aventis). Image series were captured using a Leica […]
(§5) Calculations and imaging data […]
(§6) intestinal Wt organoids or in human duodenal organoids.

In another data set the test system is Caco-2. The settings on record: cited from earlier work. The text has this:
(§7) As mentioned before, peptide transporters also play a role in drug uptake, including peptidomimetics. […] For example, peptidomimetics have been designed for cancer therapy, e.g., to induce apoptosis ([Walensky et al., 2004]), sensitize cancer cells to chemotherapeu ...

The target of data set [2] is T1, Pept1 (Mus musculus, UniProt Q9JIP7).
T1 construct: endogenous in cells; host or cells: murine small intestinal organoids (C57BL/6 wild type; Pept1-/- organoids as control)
T1 sequence (Q9JIP7 1-709): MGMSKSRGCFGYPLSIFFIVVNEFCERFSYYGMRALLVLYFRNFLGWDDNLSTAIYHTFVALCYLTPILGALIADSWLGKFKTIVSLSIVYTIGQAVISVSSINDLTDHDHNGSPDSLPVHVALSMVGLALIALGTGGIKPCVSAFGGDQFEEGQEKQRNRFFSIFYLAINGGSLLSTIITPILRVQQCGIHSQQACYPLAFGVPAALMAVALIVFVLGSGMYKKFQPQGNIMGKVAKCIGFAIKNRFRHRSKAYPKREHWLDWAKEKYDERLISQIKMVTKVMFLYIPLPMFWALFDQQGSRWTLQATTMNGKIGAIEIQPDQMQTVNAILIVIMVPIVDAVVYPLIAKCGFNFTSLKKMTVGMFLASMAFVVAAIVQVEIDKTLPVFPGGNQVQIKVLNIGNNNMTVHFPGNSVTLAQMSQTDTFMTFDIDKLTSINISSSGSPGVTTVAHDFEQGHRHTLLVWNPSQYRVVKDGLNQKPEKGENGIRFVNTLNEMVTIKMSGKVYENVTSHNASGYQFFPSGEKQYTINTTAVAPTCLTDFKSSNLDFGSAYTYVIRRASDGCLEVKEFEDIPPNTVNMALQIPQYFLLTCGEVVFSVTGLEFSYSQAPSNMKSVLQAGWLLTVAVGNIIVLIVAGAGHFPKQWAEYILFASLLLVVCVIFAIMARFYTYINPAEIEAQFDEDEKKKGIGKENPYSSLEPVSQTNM
As to the kind of experiment: Competition assay using radiolabeled Gly-Sar, murine small intestinal organoids (wild type and Pept1 knockout). It counts as in vitro ADME. The settings on record: 13mM cyclic hexapeptide (solubilized in DMSO) versus 5mM Gly-Sar (14C tracer 1mM); organoids from wild type and Pept1-deficient mice; HEPES-saline buffer pH 6.5, 37 °C; liquid scintillation; n = 5–6; Figure 2G. The protocol:
as §1, §2
(§8) centrifuged (300g, 10min). For “broken up” organoids, dissociated organoids were centrifuged (300g, 3min) and washed three times with PBS. During these steps, PBS for washing contained glucose and […]
(§9) 3 ml of Bioscint® Scintillation […]
(§10) organoids was quantified using a liquid scintillation counter (PerkinElmer). Residual amounts of all […]
in dissolved organoids derived from the ileum.
(§11) 1.7. Peptide and drug transport studies
The protocol for peptide and
(American Radiolabeled Chemicals). Final substrate concentrations used were: 5mM Gly-Sar […]
Weinmüller and Horst Kessler, and solubilized in DMSO. Peptide transporter studies were performed […]
as §3, §4, §5, §6

In data set [3] the target is T2, PEPT1 (Homo sapiens, UniProt P46059).
T2 sequence (P46059 1-708): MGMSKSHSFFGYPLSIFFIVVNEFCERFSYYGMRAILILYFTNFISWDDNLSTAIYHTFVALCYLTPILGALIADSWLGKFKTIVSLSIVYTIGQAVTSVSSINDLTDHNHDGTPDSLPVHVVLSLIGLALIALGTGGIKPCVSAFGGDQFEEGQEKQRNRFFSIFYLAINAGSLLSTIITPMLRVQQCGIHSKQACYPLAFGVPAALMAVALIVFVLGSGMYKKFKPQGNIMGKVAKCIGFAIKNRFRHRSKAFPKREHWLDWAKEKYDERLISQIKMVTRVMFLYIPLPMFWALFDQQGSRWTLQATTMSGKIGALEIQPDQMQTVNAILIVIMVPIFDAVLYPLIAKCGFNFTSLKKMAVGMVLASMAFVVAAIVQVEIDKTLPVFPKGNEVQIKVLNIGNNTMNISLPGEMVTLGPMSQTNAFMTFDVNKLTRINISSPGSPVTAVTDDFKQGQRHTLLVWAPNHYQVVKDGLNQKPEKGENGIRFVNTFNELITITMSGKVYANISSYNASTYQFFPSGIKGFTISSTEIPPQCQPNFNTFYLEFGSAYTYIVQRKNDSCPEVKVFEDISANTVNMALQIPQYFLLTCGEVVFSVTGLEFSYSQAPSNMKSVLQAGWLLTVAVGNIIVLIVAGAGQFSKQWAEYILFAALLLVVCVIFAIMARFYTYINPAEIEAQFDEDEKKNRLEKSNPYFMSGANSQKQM
As to the kind of experiment: Competition assay using radiolabeled Gly-Sar, human duodenal organoids. The settings on record: HEPES-saline buffer pH 6.5, 37 °C, liquid scintillation, n = 5–6. The method, then:
Intestinal organoids – Transport & Metabolism fructose uptake assay. Inhibitors were added 10min prior to addition of glucose and 30min prior to addition of fructose. Following incubation, substrate/inhibitor solutions were removed from intact organoids embedded in matrigel and matrigel droplets were washed three times with PBS.
Subsequently, matrigel was dissolved by addition of cold PBS and organoids were resuspended and centrifuged (300g, 10min). For “broken up” organoids, dissociated organoids were centrifuged (300g, 3min) and washed three times with PBS. During these steps, PBS for washing contained glucose and fructose, respectively, to avoid excessive transport of substrates out of the cells. Organoid pellets were resuspended in a lysis buffer containing 150mM NaCl, 50 mM Tris-HCl, 1% Igepal CA-630, 0.5% DCA and a protease inhibitor mix, and incubated for 20min on ice. 3 ml of Bioscint® Scintillation solution (National Diagnostics) were added to the cell lysate and radiolabeled substrate taken up by organoids was quantified using a liquid scintillation counter (PerkinElmer). […]
1.7. […]
Transport activity was assessed by competitive inhibition of the uptake of radiolabeled dipeptide glycyl-sarcosin (Gly-Sar), a hydrolysis-resistant model substrate of Pept1. […]
were assessed using (non-labeled) substrates (Gly-Sar) and 14C-radiolabeled substrate tracers (American Radiolabeled Chemicals). […]

In data set [4] the test system is human duodenal organoids. Put plainly: Live-cell imaging of intracellular acidification (BCECF-AM), human organoids. It is filed as cell-based. The settings on record: 40µM CCCP; for intracellular acidification: BCECF-AM 1μM, ratio F(λex490nm)/F(λex450nm), 50mM Gly-Sar, 50mM Gly-Gly, 5mM Cefadroxil, 50mM glucose, 50mM fructose as negative controls, minimum 6 experiments, representative courses. The method, then:
as §11
For peptide and drug transport studies, human organoids were cultivated for 7-9 days after passaging. […]
as §3
For live-cell imaging of intracellular acidification, organoids were incubated with 1μM BCECF-AM (Life Technologies) in HEPES-saline buffer containing 0.01% pluronic F127, 375μM eserine and 2mM […]
substances used were: 50mM Gly-Sar, 50mM Gly-Gly, 5mM Cefadroxil, 40µM CCCP (Sigma), 100µM Amilorid, and 50µM S1611 (Sanofi Aventis). Image series were captured using a Leica […]
and the fluorescence ratio F(λex490nm)/ F(λex450nm) was calculated. Calculations and imaging data analyses were performed using the Leica Application Suite Advanced Fluorescence software. All imaging experiments were performed minimum 6 times and representative time courses are depicted in the manuscript. Imaging of intracellular acidification was performed as indicated in murine small intestinal Wt organoids or in human duodenal organoids.

Data set [5] deals with human duodenal organoids. Put plainly: Uptake of radiolabeled fructose with inhibitors/competitor. It counts as cell-based. The settings on record: 14C-fructose, 2.1mM D-fructose; 1mM Phloretin or Rubusoside or 2.1mM D-glucose as competitor; inhibitors added 30min prior; dissolved (broken up) organoids, 45 min 37 °C, pH 7.4; liquid scintillation; n = 5–6. The protocol:
(§12) Subsequently, medium was changed to CCM for 5 days. […]
(§13) 1.6. Glucose and Fructose transport studies
(§14) Grenoble, France) and transferred in tubes. After repeated (2x) centrifugation (200g, 5min) and […]
indicated substrate/inhibitor for 45 min at 37 °C. Transporter ac tivities were assessed using (non- […]
(§15) from Sigma) and 1mM Rubusoside (VWR, Avantor).
as §1, §2, §8, §9, §10
(§16) in dissolved organoids derived from the ileum. […]
as §5, §6

For data set [6], the system named is human organoids derived from different regions of the small intestine. Put plainly: Uptake of radiolabeled glucose with transporter inhibitors. It counts as cell-based. The settings on record: 14C-glucose, 5.8mM D-glucose; 1mM inhibitor added 10min prior; intact organoids in matrigel, HEPES-saline buffer pH 7.4, 30 min 37 °C; liquid scintillation; n = 5–6; Figure 2B. The method, then:
as §12, §13, §14
Transporter ac tivities were assessed using (non- […]
as §15, §1, §2, §8, §9, §10, §16, §5, §6

For data set [7] the following is noted: humans; ref Becker et al., 2015; cited from earlier work.
From the text: as §7

Like-named read-outs stand apart in the source and are kept apart here.

Regarding `N=C(N)NC(=O)c1nc(Cl)c(N)nc1N` [Amiloride], in data set [1], the “recovery of intracellular pH following exposure to Gly-Sar” value is “prevented the recovery of intracellular pH to basal levels”. Also, the “course of intracellular pH in the observed time span after Gly-Sar” value in data set [1] (Figures 3G,H) was “continuous influx of protons”. For `C[C@@H]1NC(=O)[C@H](CC(=O)O)NC(=O)CNC(=O)[C@H](CCCNC(=N)N)NC(=O)[C@@H](C)N(C)C(=O)[C@H](C)N(C)C1=O` [P2], in the data set with Caco-2 (ref Weinmuller et al., 2017), the “permeability in Caco-2 assay” value is listed as “lacked permeability”. The “peptide transporter-mediated uptake judged by competitive inhibition of radiolabeled Gly-Sar uptake” value at Pept1 [2] was “actively transported independently of Pept1”. As for `C[C@@H]1NC(=O)[C@H](C)NC(=O)[C@@H](C)N(C)C(=O)[C@H](C)N(C)C(=O)[C@H](C)NC(=O)[C@H](C)NC1=O` [P3], the “permeability in Caco-2 assay” value in the data set on Caco-2 (library of N-methylated alanine peptides, ref Ovadia et al., 2011) is “highly permeable”. At PEPT1 [3] (13mM cyclic hexapeptide (solubilized in DMSO) versus 5mM Gly-Sar (14C tracer 1mM), human duodenal organoids, Figure 2H), the “competitive inhibition of radiolabeled Gly-Sar uptake” value is “significantly reduce radiolabeled Gly-Sar uptake”. At Pept1 [2], the “peptide transporter-mediated uptake judged by competitive inhibition of radiolabeled Gly-Sar uptake” value is “no signs of peptide transporter-mediated uptake”. For `CC1=C(C(=O)O)N2C(=O)[C@@H](NC(=O)[C@H](N)c3ccc(O)cc3)[C@H]2SC1` [cefadroxil], the intracellular acidification result with human duodenal organoids [4] is given as “intracellular acidification was demonstrated”. Consider `O=C(CO)[C@@H](O)[C@H](O)[C@H](O)CO` [fructose, D-fructose], for which the intracellular acidification entry with human duodenal organoids [4] is listed as “neither glucose nor fructose (used as negative controls) led to an intracellular acidification”. Consider `OC[C@H]1OC(O)[C@H](O)[C@@H](O)[C@@H]1O` (stereo partly drawn) [glucose], for which the “effect on fructose transport” value in the data set with human duodenal organoids [5] is given as “diminished”. Further, the intracellular acidification result with human duodenal organoids [4] is on record as “neither glucose nor fructose (used as negative controls) led to an intracellular acidification”. For the molecule `O=C(CCc1ccc(O)cc1)c1c(O)cc(O)cc1O` [phloretin], the “effect on fructose transport” value in the data set with human duodenal organoids [5] is given as “diminished”. The “effect on glucose uptake” value in data set [6] is recorded as “blunted glucose uptake, which was more pronounced”. With `O=C(CCc1ccc(O)cc1)c1c(O)cc(O)cc1O[C@@H]1O[C@H](CO)[C@@H](O)[C@H](O)[C@H]1O` [phloridzin], the “effect on glucose uptake” value in data set [6] is “blunted glucose uptake”.

With Cilengitide, in data set [7], the half-life of excretion is 4 h and the metabolic stability entry was “completely stable”. On to “carbonyl cyanide m-chlorophenyl hydrazine [CCCP]”, for which, in the data set with human duodenal organoids [4], the intracellular acidification result is “intracellular acidification was demonstrated”. The “intracellular pH on stimulation subsequent to Gly-Sar, Gly-Gly and cefadroxil” value with human duodenal organoids [4] (BCECF-AM, human duodenal organoids, Supplementary Figure 3A) is “additional decline in intracellular pH”. On to glycyl-glycine [Gly-Gly], for which the “competitive inhibition of radiolabeled Gly-Sar uptake” value on PEPT1 [3] (5mM Gly-Gly versus 5mM Gly-Sar (14C tracer 1mM), intact and broken up human duodenal organoids) was “significant reduction of Gly-Sar uptake in both approaches”. Further, the intracellular acidification entry in the data set with human duodenal organoids [4] is recorded as “intracellular acidification was demonstrated”. For the molecule glycyl-sarcosin [Gly-Sar], the intracellular acidification entry with human duodenal organoids [4] is listed as “intracellular acidification was demonstrated”.
